From US4824855A, “1,4-dihydropyridine derivatives” (Sanwa Kagaku Kenkyusho Co., Ltd., priority 1985, dated 1989)
“Also recorded” adds a separate entry of the source. Like-named read-outs stand apart in the source and are kept apart here.

What was measured:
[1] = Acute toxicity (oral, Litchfield-Wilcoxon method); details: mouse, in vivo, dd mice, observation for 72 hours
Protocol: Male and female dd mice were used (weight: 18-20 g). Each of compounds to be tested was dissolved in 1% Nikkol and administered directly into stomach by forced oral administration and with use of a metal sonde. LD50 of the compounds were calculated by Litchfield-Wilcoxon method, after observation for 72 hours.

[2] = tested on: spiral strip of New Zealand white rabbit aorta; test: Ca antagonistic effect (Magnus method, Ca-induced contraction after K depolarization); format: cell-based
Protocol: Ca antagonistic effect was examined on a spiral strip of New Zealand white rabbit aorta with the Magnus method. The response of preparations was recorded isometically on a recorder. […] The data given in following Table 1 are presented as inhibitory % to concentration without the compound.

left atrium = test: Negative inotropic effect on electrically driven left atrium; format: cell-based, New Zealand white rabbit; details: Oryctolagus cuniculus; for inhibition at 100 µM: Concentration of the compound 10^-4 mol; for inhibition at 10 µM: Concentration of the compound 10^-5 mol; for IC50: read-out: ID50 (× 10^-4)
Protocol: New Zealand white rabbit was killed by bleeding from the carotid artery and the left atrium was quickly removed. […] The response of preparations was recorded isometically on a recorder. The initial tension applied to the preparation was adjusted to 1 g.

[3] = tested on: femoral arterial blood flow; test: Effect of compounds on femoral arterial blood flow in anesthetized dogs; format: in vivo, mongrel dogs; details: 1 μg/kg, i.v.
Protocol: (§1) An experiment was carried out by anesthetizing adult male and female mongrel dogs (weight; 10-20 kg) with Nembutal (30 mg/kg i.p.) and artificially respiring (20 ml/kg/stroke, 20 strokes/min) the animals.
(§2) Right vertebral and femoral arteries were exposed and each probe of electro-magnetic flow meter was fitted therein to measure vertebral and femoral arterial blood flow. A cannula was inserted into descending aorta from left femoral artery in order to measure blood pressure by pressure transducer connected to amplifier. Each of test compounds dissolved in 50% ethanol solution (1 μg/kg, i.v.) was administered from the cannula into cephlic vein.

[4] = tested on: vertebral arterial blood flow; test: Effect of compounds on vertebral arterial blood flow in anesthetized dogs; format: in vivo, mongrel dogs; details: 1 μg/kg, i.v.
Protocol: as §1, §2

diastolic blood pressure = test: Effect of compounds on diastolic blood pressure in anesthetized dogs; format: in vivo, mongrel dogs; details: 1 μg/kg, i.v.
Protocol: as §1, §2

[5] = tested on: spontaneously hypertensive male rats; test: Blood pressure depressing action (systolic pressure); format: in vivo; details: 3.0 mg/kg oral
Source text: The testing or control compound was orally administered to the indicated number (N) of spontaneously hypertensive male rats (15 or more weeks old).

[6] = related arts; cited from earlier work
[7] = tested on: vertebral arterial blood flow; test: Vertebral and femoral arterial blood flow increasing action (ED50); format: in vivo; details: Canis lupus familiaris, iv; amount required to increase the vertebral arterial blood flow by 50%, anesthetized dogs
Protocol: The bloodflow increasing action of the compounds was measured on anesthetized dogs, in a manner similar to that of Pharmaceutical Test Example 3, to obtain the results shown in Table 6 below:
ED50 in the Table indicates the amount of the compound required to increase the vertebral arterial blood flow by 50%.

[8] = compound 10^-7 mol, Concentration of Ca ion 2.5 mM
[9] = compound 10^-7 mol, Concentration of Ca ion 5.0 mM
[10] = compound 10^-8 mol, Concentration of Ca ion 2.5 mM
[11] = compound 10^-8 mol, Concentration of Ca ion 5.0 mM
[12] = negative inotropic effect, compound concentrations in the table in mol

Compound | LD50 at 72 h [1] | Inhibitory (%) [2, 8] | Inhibitory (%) [2, 9] | Inhibitory (%) [2, 10] | Inhibitory (%) [2, 11] | inhibition at 100 µM (left atrium; read-out: Change (%)) | inhibition at 10 µM (left atrium; read-out: Change (%)) | IC50 (left atrium; [12]) | Change (%) FABF [3] | Change (%) VABF [4] | Change (%) DBP (diastolic blood pressure) | Systolic pressure (change from pre-value) ([5]; 1 hr) | Systolic pressure (change from pre-value) ([5]; 2 hr) | Systolic pressure (change from pre-value) ([5]; 4 hr) | Systolic pressure (change from pre-value) ([5]; 6 hr) | Systolic pressure (change from pre-value) ([5]; 24 hr) | effect on cerebral blood flow [6] | also measured
CC1=C(C(=O)OCCN(C)Cc2ccccc2)C(c2cccc([N+](=O)[O-])c2)C(C(=O)OCC2CC2)=C(C)N1 (centres unmarked) [Example 1, 3-cyclopropylmethyl 5-[2-(N-benzyl-N-methylamino)ethyl] 1,4-dihydro-2,6-dimethyl-4-(3-nitrophenyl)pyridine-3,5-dicarboxylate] | 211 mg/kg | 94.7 ± 3.72% | > 100% | 76.1 ± 6.62% | 81.3 ± 5.46% | 15.7% | 7.4% | 320 µM | 25 ± 8% | 51 ± 13% | -9 ± 1% |  |  |  |  |  |  | 
COc1ccc(CN(C)CCOC(=O)C2=C(C)NC(C)=C(C(=O)OCC3CC3)C2c2cccc([N+](=O)[O-])c2)cc1 (centres unmarked) [Example 4, 3-cyclopropylmethyl 5-[2-[N-(4-methoxybenzyl)-N-methylamino]ethyl] 1,4-dihydro-2,6-dimethyl-4-(3-nitrophenyl)pyridine-3,5-dicarboxylate] |  |  |  |  |  |  |  |  | 19 ± 6% | 33 ± 5% | -6 ± 1% |  |  |  |  |  |  | 
COC(=O)C1=C(C)NC(C)=C(C(=O)OC)C1c1ccccc1[N+](=O)[O-] [Nifedipine, dimethyl ester of 1,4-dihydro-2,6-dimethyl-4-(2-nitropheny)pyridine-3,5-dicarboxylic acid] |  | > 100% | > 100% | 63.5 ± 7.33% | 62.3 ± 7.91% | 19% | 9.5% |  |  |  |  | -19.3 ± 4.41 mm Hg | -10.6 ± 3.14 mm Hg | -4.3 ± 2.70 mm Hg | -0.1 ± 1.56 mm Hg | -1.1 ± 1.06 mm Hg | tendency of causing a relative decrease on cerebral blood flow | IC50 (left atrium): 120 µM; pharmaceutical activities [6]: coronary vasodilating action, blood pressure depressing action; also recorded: powerful depressing action
COC(=O)C1=C(C)NC(C)=C(C(=O)OCCN(C)Cc2ccccc2)C1c1cccc([N+](=O)[O-])c1 (centres unmarked) [Nicardipine, 1,4-dihydro-2,6-dimethyl-4-(3-nitrophenyl)-pyridine-3,5-dicarboxylic acid 3-2-(N-benzyl-N-methylamino)ethyl 5-methyl ester] | 305 mg/kg | 90.9 ± 12.06% | 83.2 ± 15.93% | 26.5 ± 18.40% | 16.3 ± 21.28% | 25.6% | 13.5% | 34 µM | 14 ± 5% | 32 ± 7% | -10 ± 1% | -10.0 ± 2.28 mm Hg | -5.7 ± 1.61 mm Hg | -3.0 ± 2.01 mm Hg | -1.0 ± 1.50 mm Hg | -4.2 ± 1.88 mm Hg | high cerebral blood flow increasing action | inhibition at 1 µM (left atrium; Concentration of the compound 10^-6 mol, read-out: Change (%)): 3.4%; ED50 [7]: 0.0042 mg/kg
CC1=C(C(=O)OCCN(C)Cc2ccc(Cl)cc2)C(c2cccc([N+](=O)[O-])c2)C(C(=O)OCC2CC2)=C(C)N1 (centres unmarked) [Example 3, 3-[2-[N-(4-chlorobenzyl)-N-methylamino]ethyl] 5-cyclopropylmethyl 1,4-dihydro-2,6-dimethyl-4-(3-nitrophenyl)pyridine-3,5-dicarboxylate] |  |  |  |  |  |  |  |  | 23 ± 8% | 56 ± 12% | -8 ± 1% |  |  |  |  |  |  | 
